The target in assay [1] is Estrogen receptor alpha (Homo sapiens) (UniProt P03372). The assay is described as follows: Inhibition of estradiol-induced coactivator peptide SRC1 binding to estrogen receptor alpha expressed in human HEC1 cells at 20 uM after 24 hrs by beta-galactosidase based mammalian two-hybrid assay. Details: scale not given: the % may be the effect or the level left. The settings on record: HEC-1.

Assay [2] has the same target. The assay is described as follows: Antagonist activity at estrogen receptor alpha expressed in human HEC1 cells assessed as inhibition of estradiol-induced transcriptional activity at 20 uM after 24 hrs by beta-galactosidase reporter gene assay. Details: scale not given: the % may be the effect or the level left. Particulars: HEC-1. In general terms: A reporter such as luciferase makes a cellular process visible.

The target in assay [3] is T1, Estrogen receptor (Homo sapiens, UniProt P03372).
T1 sequence (P03372 whole entry): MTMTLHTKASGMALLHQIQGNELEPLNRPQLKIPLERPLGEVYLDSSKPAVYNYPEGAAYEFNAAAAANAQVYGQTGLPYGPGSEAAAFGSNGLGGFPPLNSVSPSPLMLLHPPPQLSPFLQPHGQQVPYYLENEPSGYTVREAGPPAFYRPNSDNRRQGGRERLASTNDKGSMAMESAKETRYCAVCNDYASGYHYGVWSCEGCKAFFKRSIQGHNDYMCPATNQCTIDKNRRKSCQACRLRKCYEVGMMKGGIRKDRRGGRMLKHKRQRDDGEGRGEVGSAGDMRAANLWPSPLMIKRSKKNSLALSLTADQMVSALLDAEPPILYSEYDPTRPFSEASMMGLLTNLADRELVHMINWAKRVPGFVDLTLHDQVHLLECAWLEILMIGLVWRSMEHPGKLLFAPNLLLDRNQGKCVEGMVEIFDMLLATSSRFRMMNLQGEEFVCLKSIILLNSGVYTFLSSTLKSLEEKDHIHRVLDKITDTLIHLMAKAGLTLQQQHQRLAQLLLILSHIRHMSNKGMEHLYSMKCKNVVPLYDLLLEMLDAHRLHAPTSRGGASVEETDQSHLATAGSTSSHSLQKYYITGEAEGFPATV
The assay is described as follows: Inhibition of estradiol-induced coactivator peptide SRC1 binding to estrogen receptor alpha expressed in human HEC1 cells after 24 hrs by luciferase based mammalian two-hybrid assay. Format: cell-based, HEC-1.

The target in assay [4] is T1, Estrogen receptor. The assay is described as follows: Inhibition of estradiol-induced coactivator peptide SRC binding to recombinant estrogen receptor by fluorescence polarization assay. On the technique in general: Polarisation of emitted light reports the rotation of a fluorescent probe.
Assay [5] deals with Estrogen receptor alpha (Homo sapiens) (UniProt P03372). The assay is described as follows: Covalent binding affinity to estrogen receptor alpha assessed as change in molecular weight after 30 mins by electrospray ionization mass spectrometry.

The source made the active and inactive calls. The calls are words filed in the database; no cut-off is given here.

On to `N=C(N)N/N=C/C=C(\Cl)c1cccc2ccccc12`, for which the Activity in assay [1] and in assay [2] was 50% in each case. The compound further had an IC50 in assay [3] of at least 50 µM.
As for `CC1CC(/C=N/NC(=N)N)=C(Cl)c2ccccc21` (stereo not given), the Activity in assay [1] and in assay [2] was 50% in each case. This compound showed an IC50 in assay [3] of 9.4 µM.
Consider `N=C(N)N/N=C/C1=C(Br)c2ccccc2CC1`, for which the Activity in assay [1] and in assay [2] was 50% each time. In assay [3], the IC50 was 4.9 µM.
With `COC1=C(/C=N/NC(=N)N)CCc2ccccc21`, the Activity in assay [1] and in assay [2] was 50% in each case. This compound also yielded an IC50 in assay [3] of at least 50 µM.
For the compound `N=C(N)N/N=C/C1=C(Cl)c2ccccc2C1`, the Activity in assay [1] and in assay [2] was 50% in each case. The half-maximal inhibitory concentration (IC50) in assay [3] was 6.8 µM.
Take `N=C(N)N/N=C/C1=C(C(F)(F)F)c2ccccc2CC1`: the Activity in assay [1] and in assay [2] was 50% throughout.
In the case of `N=C(N)N/N=C/C1=C(Cl)c2ccccc2CCC1`, the Activity in assay [1] and in assay [2] was 50% throughout. The IC50 in assay [3] was 4 µM; in assay [4], 16 µM.
Consider `N=C(N)N/N=C/C=C(\Cl)c1ccccc1`, for which the Activity in assay [1] and in assay [2] was 50% throughout. In addition, the IC50 in assay [3] was 4.6 µM.
In the case of `Cc1cc(C)c2c(c1)C(Cl)=C(/C=N/NC(=N)N)CC2`, the Activity in assay [1] and in assay [2] was 50% in each case. In addition, the IC50 in assay [3] came out at 2.5 µM.
As to `N=C(N)N/N=C/C1=C(Oc2ccccc2)c2ccccc2CC1`, the Activity in assay [1] and in assay [2] was 50% throughout. The IC50 in assay [3] was found to be 5.9 µM.
Consider `N=C(N)N/N=C/c1ccc2ccccc2c1`, for which the Activity in assay [1] and in assay [2] was 50% each time. Further, the IC50 in assay [3] stood at 11.3 µM.
On to `N=C(N)N/N=C/C1=C(Cl)c2ccccc2CC1`, for which the Activity in assay [1] and in assay [2] was 50% in each case. The IC50 in assay [3] amounted to 3.6 µM; in assay [4] it was 11 µM. Further, in assay [5], the result was inactive.
Turning to `COc1ccc2c(c1)CCC(/C=N/NC(=N)N)=C2Cl`, the Activity in assay [1] and in assay [2] was 50% in each case. Moreover, in assay [3], the IC50 is 2.1 µM.
As for `CC(/C=N/NC(=N)N)=C(/Cl)c1ccccc1`, the Activity in assay [1] and in assay [2] was 50% throughout. The IC50 in assay [3] came to 2.6 µM; in assay [4] it was 37 µM.
In the case of `C/C(=N\NC(=N)N)C1=C(Cl)c2ccccc2CC1`, the Activity in assay [1] and in assay [2] was 50% each time.
Consider `N=C(N)N/N=C/c1cccc2ccccc12`, for which the Activity in assay [1] and in assay [2] was 50% throughout. Also, the IC50 in assay [3] turned out to be 11.5 µM.

As a reminder, the IC50 is the concentration needed to halve the response being measured.
